Experimental data reported in PubChem BioAssay AID1996.
In brackets after ≈: the same amount, converted by molar mass.

Conditions: buffer; pH 7.4; 200.0 µM

Compound	solubility kinetic
Cc1ccc(OCC(O)CN2CCOCC2)cc1 (stereo not given)	33.4 µg/mL (≈ 133 µM)
CCC(=O)Nc1cc2[nH]c(=O)cc(C)c2cc1C	33.4 µg/mL (≈ 137 µM)
Cc1ccc(NC(=O)c2ccc(S(=O)(=O)N3CCOCC3)cc2)c(C)c1	5.2 µg/mL (≈ 13.9 µM)
CCOc1ccccc1NC(=O)c1ccccc1-c1ccccc1	8.5 µg/mL (≈ 26.8 µM)
CCOC(=O)N1CCN(S(=O)(=O)c2ccc(Cl)cc2)CC1	48.4 µg/mL (≈ 145 µM)
Nc1c(C(=O)c2ccco2)oc2ccccc12	25.8 µg/mL (≈ 114 µM)
CC(C)NC(NC(=O)/C=C/c1ccccc1)C(Cl)(Cl)Cl (stereo not given)	44.7 µg/mL (≈ 133 µM)
Cn1c(/C=C/c2ccc(Br)cc2)nc2ccccc2c1=O	< 0.4 µg/mL
COc1cccc(Nc2ccc(C(=O)O)cc2N)c1	> 38.7 µg/mL
CCOc1ccc(CCNC(=O)COC(=O)/C=C/c2ccco2)cc1OCC	39.5 µg/mL (≈ 102 µM)
CC(NC(=O)CCC(=O)N1CCCCCC1)c1ccccc1 (stereo not given)	> 45.4 µg/mL
O=C(/C=C/c1ccc([N+](=O)[O-])cc1)NCCOc1ccc(F)cc1	4 µg/mL (≈ 12.1 µM)
O=C1Nc2c(ccc(Cl)c2Cl)C(=O)C1(F)c1ccccc1 (stereo not given)	< 0.7 µg/mL
CC(=O)Nc1ccc(-c2csc(Nc3ccccn3)n2)cc1	0.5 µg/mL (≈ 1.61 µM)
CC(C)Cc1ccc(C(=O)NCCOc2ccccc2)o1	29.2 µg/mL (≈ 102 µM)
CCCCN(C(=O)c1ccncc1)c1c(N)n(CCC)c(=O)[nH]c1=O	37.1 µg/mL (≈ 107 µM)
O=C(O)[C@@H]1CCCN1C(=O)COc1ccc2c3c(c(=O)oc2c1)CCC3	> 53.6 µg/mL
Cc1csc(NC(=O)c2cc(C)nc3ccccc23)n1	30.7 µg/mL (≈ 108 µM)
COc1ccc(C2(C)NC(=O)NC2=O)cc1OC (stereo not given)	> 37.5 µg/mL
O=C(COC(=O)c1ccc2ccccc2n1)c1ccccc1	42.3 µg/mL (≈ 145 µM)
COc1ccc(OCC(O)CN2C(=O)c3ccccc3C2=O)cc1 (stereo not given)	> 49.1 µg/mL
COC(=O)NC1c2ccccc2Oc2ccc(C)cc21 (stereo not given)	< 0.6 µg/mL
CN1CCN(C(=O)c2cc(=O)c3cc(Cl)ccc3o2)CC1	> 46 µg/mL
COc1cccc(OC)c1C(=O)OCC(=O)N1CCC(Cc2ccccc2)CC1	5.2 µg/mL (≈ 13.1 µM)

Compound	solubility kinetic
Cc1cc(C)c2nc(NCc3ccccc3O)sc2c1	< 0.3 µg/mL
Cc1ccc(C(=O)N2CCCc3ccccc32)c(F)c1F	17.2 µg/mL (≈ 59.9 µM)
COc1ccc(N/N=C(\C#N)C(=N)N2CCOCC2)cc1	> 43.1 µg/mL
COc1ccccc1OCCC(=O)OCC(=O)NCc1ccc(Cl)cc1	3.4 µg/mL (≈ 9 µM)
COc1cc(NC(=O)C2CC2)c(OC)cc1NC(=O)c1ccco1	3.6 µg/mL (≈ 10.9 µM)
CC(NC(=O)COC(=O)C1CC1C)c1ccccc1 (stereo not given)	> 39.2 µg/mL
CC(C)S(=O)(=O)c1cnc(-c2ccccn2)nc1N	37.6 µg/mL (≈ 135 µM)
Cc1ccc2nc(SC(C)C(=O)N3CCOCC3)[nH]c2c1 (stereo not given)	38.3 µg/mL (≈ 125 µM)
O=C1CC(N(O)c2ccccc2)C(=O)N1c1ccc(Cl)c(Cl)c1 (stereo not given)	9.8 µg/mL (≈ 27.9 µM)
COC(=O)c1[nH]c2ccccc2c1NC(=O)C(C)N1CC(C)OC(C)C1 (stereo not given)	> 53.9 µg/mL
CC(OC(=O)c1cccnc1Cl)C(=O)NCc1ccccc1 (stereo not given)	> 47.8 µg/mL
CSc1ncccc1C(=O)Nc1ncc(C)s1	5.7 µg/mL (≈ 21.5 µM)
Cc1c(C(=O)O)sc2c1c(=O)n(Cc1ccccc1)c(=O)n2C	> 49.6 µg/mL
Cc1ccc(C2(c3noc(CN(C)CCO)n3)CCCC2)cc1	39.5 µg/mL (≈ 125 µM)
O=C(NCc1ccncc1)C(=O)NCc1ccncc1	> 40.5 µg/mL
CC(CC(=O)O)CC(=O)Nc1cccc([N+](=O)[O-])c1 (stereo not given)	> 39.9 µg/mL
COc1ccc(CN(C(=O)c2cccs2)c2ccccc2)cc1	8.8 µg/mL (≈ 27.2 µM)
CS(=O)(=O)N(CC(=O)Nc1ccccc1F)C1CCCCC1	47.3 µg/mL (≈ 144 µM)
Cc1ccnc(NS(=O)(=O)c2cc(C(F)(F)F)ccc2Cl)c1	1.7 µg/mL (≈ 4.85 µM)
Cc1cc(C)n(NC(=S)NC2CCCCC2)c(=O)c1C#N	> 45.7 µg/mL
Cc1onc(-c2ccccc2)c1C(=O)NN1CCOCC1	> 43.1 µg/mL
Cc1cnc(NC(=O)Cc2ccccc2Cl)s1	1.1 µg/mL (≈ 4.12 µM)
COc1ccccc1N(Cc1cc(=O)[nH]c2ccccc12)C(C)=O	> 48.4 µg/mL
CC1CCCCC1NC(=O)c1cc(=O)[nH]c2ccccc12 (stereo not given)	3.6 µg/mL (≈ 12.7 µM)

Compound	solubility kinetic
CS(=O)(=O)N(CC(=O)Nc1c(F)cccc1F)Cc1ccccc1	> 53.2 µg/mL
O=C(NCC(=O)N1CCOCC1)OCc1ccccc1	> 41.7 µg/mL
CC(NC(=O)CCCc1c[nH]c2ccccc12)c1ccc(F)cc1 (stereo not given)	41.5 µg/mL (≈ 128 µM)
Cc1ccc(S(=O)(=O)C2(C(=O)NC3CCCCC3C)CC2)cc1 (stereo not given)	37.3 µg/mL (≈ 111 µM)
COC(=O)c1ccc(S(=O)(=O)N2CCCN(Cc3ccc(F)cc3)CC2)n1C	> 61.4 µg/mL
CCn1c(C)nc2cc(C(=O)NNC(=O)CN(C)S(=O)(=O)c3ccc(NC(C)=O)cc3)ccc21	> 73 µg/mL
COc1cc2ccccc2cc1C(=O)NC(=S)Nc1cccc(C(=O)O)c1C	18.3 µg/mL (≈ 46.4 µM)
COc1ccc(NC(=O)COC(=O)c2ccc3c(c2)OCO3)c(OC)c1	1.9 µg/mL (≈ 5.29 µM)
Cc1cc(C)c(S(=O)(=O)NC2CC2)c(C)c1	> 35.9 µg/mL
CCC1CCCCN1C(=S)NC(=O)c1cccc([N+](=O)[O-])c1 (stereo not given)	> 48.2 µg/mL
COc1ccccc1NS(=O)(=O)c1ccc(C)c(C(=O)Nc2cc(C)on2)c1	22.4 µg/mL (≈ 55.8 µM)
CCOC(=O)Cc1csc(NC(=O)CN2CCCCC2)n1	41.6 µg/mL (≈ 134 µM)
O=C(NC(=S)NC1CCCc2ccccc21)c1ccc(F)cc1 (stereo not given)	< 0.4 µg/mL
CC(C)(C)C(=O)OCc1nc(-c2ccc3c(c2)OCCO3)cs1	< 0.7 µg/mL
CNC(=O)COC(=O)/C=C/c1nc2ccccc2s1	> 41.4 µg/mL
CCC(Sc1ncccc1Nc1ccccn1)C(=O)O (stereo not given)	> 43.4 µg/mL
O=C(Nc1ccncc1)Nc1ccc(Br)cc1Cl	1.9 µg/mL (≈ 5.82 µM)
CC(=O)/C(=C(/O)c1ccccc1)c1nc2ccccc2[nH]1	1.4 µg/mL (≈ 5.03 µM)
COc1ccc(NC(=O)NC2(C)CCS(=O)(=O)C2)cc1 (stereo not given)	> 44.8 µg/mL
CC1SC(C)C(=O)N(CC(=O)Nc2ccc([N+](=O)[O-])cc2)C1=O (stereo not given)	45.7 µg/mL (≈ 135 µM)
CCC1(CC)Nc2ccccc2C(=O)N1c1ccc(OC)cc1	16.5 µg/mL (≈ 53.2 µM)
O=C1NC(=O)N(Cc2ccccc2F)C1=O	> 33.3 µg/mL
COc1ccc(CCNC(=O)c2coc3ccccc3c2=O)cc1	1.7 µg/mL (≈ 5.26 µM)
CC(C)CNCC1OCc2ccccc2CO1.Cl	> 40.8 µg/mL

Compound	solubility kinetic
CCOC(=O)c1ccc2c(c1)nc(-c1ccccn1)n2CC	11.4 µg/mL (≈ 38.6 µM)
O=C(/C=C/c1cccs1)NCc1ccc2c(c1)OCO2	6.3 µg/mL (≈ 21.9 µM)
CC(C)c1ccc(NC(=O)CN2CCN(c3ccccn3)CC2)cc1	1 µg/mL (≈ 2.95 µM)
O=C(Nc1ccc(F)cc1)c1cncs1	> 33.3 µg/mL
O=C(C1CCCCC1)N1CC(=O)N2CCc3ccccc3C2C1 (stereo not given)	> 46.9 µg/mL
Cc1ccc(C(=O)NC2CCN(C(=O)Nc3ccc(F)cc3)CC2)cc1	0.6 µg/mL (≈ 1.69 µM)
CNC(=O)COC(=O)c1ccc(Cl)c(S(N)(=O)=O)c1	> 46 µg/mL
CC1(C)CC(=O)C=C(Nc2ccc(Cl)cc2)C1	34.2 µg/mL (≈ 137 µM)
O=C(c1ccc(Br)cc1)N(c1ccccn1)C1CCCCC1	16.5 µg/mL (≈ 45.9 µM)
CN1CCN(Cc2cc3c(cc2[N+](=O)[O-])OCO3)CC1	38.3 µg/mL (≈ 137 µM)
CCOc1ccc(NC(C)=O)cc1[N+](=O)[O-]	> 33.6 µg/mL
N#Cc1cc([N+](=O)[O-])ccc1NCCc1ccccn1	> 40.2 µg/mL
O=C(CC1CCOCC1)Nc1ccc(Cl)c(Cl)c1	> 43.2 µg/mL
COc1cccc(C2(C#N)CCN(C)CC2)c1	> 34.5 µg/mL
O=S(=O)(Nc1cc(Cl)cc(Cl)c1)N1CCOCC1	> 46.7 µg/mL
O=C(Nc1ccccc1N1CCCC1)C1CCCO1 (stereo not given)	> 39.1 µg/mL
O=C(CSCc1ccccc1F)NCc1ccc(F)cc1	> 46.1 µg/mL
CCn1c(SCc2ccccc2)nc2cc(OC)c(OC)cc2c1=O	< 0.4 µg/mL
O=C(COc1ccc(S(=O)(=O)N2CCCCC2)cc1)N1CCCC1	> 52.9 µg/mL
Cn1cc(C(=O)NC2CC2)c2ccccc21	31.9 µg/mL (≈ 149 µM)
O=C(NCCNC1CCC(c2ccccc2)CC1)c1ccc(F)cc1 (stereo not given)	35.4 µg/mL (≈ 104 µM)
O=C(NCc1cccnc1)/C(=C/c1ccc([N+](=O)[O-])cc1)NC(=O)c1ccccc1	10.2 µg/mL (≈ 25.3 µM)
CC(C)OCCCNC(=O)Nc1cccc2ccccc12	> 43 µg/mL
CCn1cc(CCCC(=O)NCc2cccnc2)c2ccccc21	> 48.2 µg/mL

Compound	solubility kinetic
COc1ccccc1-n1cc(-c2ccc(C)cc2)[nH]c1=S	1 µg/mL (≈ 3.37 µM)
CS(=O)(=O)Cc1ccc(C(=O)N2CCN(C(=O)c3cccs3)CC2)cc1	> 58.9 µg/mL
C/C(=N\O)C(C)(C)Nc1ccccc1F	28.1 µg/mL (≈ 134 µM)
CCN1CC2([N+](=O)[O-])CC=C(Cl)C([N+](=O)[O-])(C1)C2 (stereo not given)	28.4 µg/mL (≈ 103 µM)
CCOc1ccccc1NC(=O)C1CCCN(S(C)(=O)=O)C1 (stereo not given)	> 49 µg/mL
CC(C)CN1C(=O)c2ccc(NC(=O)C3CC3)cc2C1=O	0.5 µg/mL (≈ 1.75 µM)
CC1CN(Cc2cnc(Cl)s2)CC(C)O1 (stereo not given)	27.9 µg/mL (≈ 113 µM)
CC1CN(CC(=O)NCc2ccc(F)cc2)CC(C)O1 (stereo not given)	> 42.1 µg/mL
COc1cc(CN2CCNCC2)cc(OC)c1OC.Cl	23.1 µg/mL
O=C(O)c1cccnc1SCc1ccccc1Cl	> 42 µg/mL
Cc1ccc(CC(=O)Nc2ccc(S(=O)(=O)N3CCOCC3)cc2)cc1	7.5 µg/mL (≈ 20 µM)
O=C(C(=O)N1CCCC1)c1c[nH]c2ccccc12	> 36.3 µg/mL
CC(OC(=O)c1ccccc1O)C(=O)Nc1cccc(Cl)c1 (stereo not given)	2 µg/mL (≈ 6.26 µM)
CCOc1ccc(C2C3=C(CCCC3=O)OC(N)=C2[N+](=O)[O-])cc1 (stereo not given)	> 49.6 µg/mL
Cc1cc(O)ccc1Nc1nc(-c2cccnc2)cs1	1.8 µg/mL (≈ 6.35 µM)
Cc1cccc2c1NC(=O)C2(O)N1CCCC(C)C1 (stereo not given)	> 39.1 µg/mL
Cc1cccc(C)c1N1C(=O)CC(N2CCSCC2)C1=O (stereo not given)	> 45.7 µg/mL
NC(=O)c1ccc(CSc2nc3ccccc3s2)cc1	1.4 µg/mL (≈ 4.66 µM)
Cc1cccc2nc3ccccc3nc12	0.7 µg/mL (≈ 3.6 µM)
CCCCn1c(O)c(/C=C2/C=CC=N2)c(=O)[nH]c1=O	5.1 µg/mL (≈ 19.5 µM)
N#Cc1ccc(OS(=O)(=O)c2ccc(-c3ccon3)s2)cc1	11.8 µg/mL (≈ 35.5 µM)
O=C(C1=C(O)C(=O)N(c2ncccn2)C1c1ccc(F)cc1)c1ccco1 (stereo not given)	53.1 µg/mL (≈ 145 µM)
Cl.Oc1ccccc1CNCC12CC3CC(CC(C3)C1)C2	> 46.2 µg/mL
COc1ccc(S(=O)(=O)NCCc2ccncc2)cc1	40.7 µg/mL (≈ 139 µM)
